US20250382344A1, “Soluble GLP1/GIP/NPY2 Receptor Triple Agonists” (Boehringer Ingelheim International GmH, priority 2024, published 2025)
Like-named read-outs stand apart in the source and are kept apart here.

Columns and labels:
hGIPR = biological target: T1, hGIPR (Homo sapiens, UniProt P48546); experiment: hGIPR CreLuc assay in 0.5% and 100% plasma (CHO CRE-luciferase reporter cells); format: cell-based; settings: 0.5% human plasma, read-out: hGIPR 0.5% hP
T1 construct: expressed in transfected cells; host or cells: CHO CRE-luciferase reporter cells
T1 sequence (P48546 22-466): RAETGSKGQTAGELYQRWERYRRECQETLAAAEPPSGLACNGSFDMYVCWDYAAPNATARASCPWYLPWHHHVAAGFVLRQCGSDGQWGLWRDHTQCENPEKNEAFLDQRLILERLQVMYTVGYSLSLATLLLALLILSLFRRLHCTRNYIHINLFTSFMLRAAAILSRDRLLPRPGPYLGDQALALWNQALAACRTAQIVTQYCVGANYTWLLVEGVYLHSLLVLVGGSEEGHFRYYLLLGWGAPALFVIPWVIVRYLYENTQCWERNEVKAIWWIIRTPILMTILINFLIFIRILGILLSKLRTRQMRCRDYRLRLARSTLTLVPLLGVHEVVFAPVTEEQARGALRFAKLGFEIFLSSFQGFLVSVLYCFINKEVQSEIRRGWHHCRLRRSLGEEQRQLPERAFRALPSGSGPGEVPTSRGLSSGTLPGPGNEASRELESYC

hNPY2R = biological target: T2, hNPY2R (Homo sapiens, UniProt P49146); experiment: hNPY2R CreLuc assay in 0.5% and 100% plasma (HEK-293 CRE-luciferase reporter cells); format: cell-based; settings: HEK-293 reporter cells
T2 construct: expressed in transfected cells; host or cells: HEK-293 CRE-luciferase reporter cells
T2 sequence (P49146 1-381): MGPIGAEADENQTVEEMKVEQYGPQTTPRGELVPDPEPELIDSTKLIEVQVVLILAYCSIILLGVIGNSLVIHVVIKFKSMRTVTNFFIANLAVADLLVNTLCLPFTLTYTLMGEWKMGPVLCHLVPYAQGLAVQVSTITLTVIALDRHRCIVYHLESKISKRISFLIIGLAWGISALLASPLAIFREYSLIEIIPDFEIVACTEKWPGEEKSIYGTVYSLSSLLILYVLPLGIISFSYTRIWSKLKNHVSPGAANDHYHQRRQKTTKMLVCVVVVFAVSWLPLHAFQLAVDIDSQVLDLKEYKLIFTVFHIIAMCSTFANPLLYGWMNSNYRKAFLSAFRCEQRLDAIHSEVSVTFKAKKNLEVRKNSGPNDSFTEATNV
From the text: CHO and HEK-293 recombinant cell lines express a luciferase reporter gene under control of the CAMP responsive element (CRE). As a second recombinant protein the GLP-1 and NPY2 receptors were expressed in the reporter gene HEK cells, and the GIP receptor was expressed in the reporter gene CHO cells, respectively. Stimulation of these recombinant cells with an agonist leads to an increase of intracellular CAMP levels. In the presence of CAMP, the transcription factor CRE binding protein (CREB) binds to the CRE and to the CREB binding protein (CBP), which leads to transcription of the luciferase reporter gene. Peptides upon serial-dilution in 100% DMSO were transferred into 384-well assay plates with 5 μl pre-dispensed assay buffer (1×HBSS, 20 mM HEPES, pH7.4 supplemented with 0.5% human plasma) using acoustic dispensing on a Labcyte ECHO. Cryo-preserved transgenic reporter gene cells were thawed in assay buffer. 20 μl (10.000 cells/well) were added to the plate with the peptides and incubated for 4 hours at 37° C. in a humidified incubator. Following incubation, assay plates are equilibrated to room temperature, followed by addition of 25 μl of Bright-Glo™ Luciferase reagent, incubation at room temperature for 10 minutes and analysis of luminescence (Envision Reader). […] EC50 values were calculated by non-linear regression using sigmoid concentration-response with variable slope.
The same assays were run in the presence of 100% plasma with no additional buffer constituents.

[1] = Solubility in 0.1 M phosphate buffer at pH 7; format: physicochemical; settings: 0.1 M phosphate buffer at pH 7, 10 mg/mL final peptide concentration, shaking 2 hours at room temperature, peptides as TFA-salts; measured sample pH 6.5-7.0
[2] = 0.5% human plasma, read-out: hNPY2R 0.5% hP

EC50 (hGIPR) | EC50 (hNPY2R; [2]) | solubility at 2 h [1] | EC50 (hNPY2R; 100% human plasma, read-out: hNPY2R 100% hP) | SMILES | EC50 (hNPY2R; hNPY2R 100% hP (nM), 100% human plasma)
0.8 nM | 41.3 nM | 10000 µg/mL |  | CC[C@H](C)[C@H](NC(=O)[C@H](CO)NC(=O)[C@H](Cc1ccc(O)cc1)NC(=O)[C@H](CC(=O)O)NC(=O)[C@H](CO)NC(=O)[C@@H](NC(=O)[C@H](Cc1ccccc1)NC(=O)[C@@H](NC(=O)CNC(=O)[C@H](CCC(=O)O)NC(=O)C(C)(C)NC(=O)[C@@H](N)Cc1ccc(O)cc1)[C@@H](C)O)[C@@H](C)O)C(=O)N[C@@H](C)C(=O)N[C@@H](CC(C)C)C(=O)N[C@@H](CCC(=O)O)C(=O)N[C@@H](CCCCN)C(=O)N[C@@H](CCC(N)=O)C(=O)N[C@@H](C)C(=O)N[C@@H](CCC(N)=O)C(=O)NC(C)(C)C(=O)N[C@@H](C)C(=O)N[C@@H](Cc1ccccc1)C(=O)N[C@H](C(=O)N[C@@H](CCCNC(=N)N)C(=O)N[C@@H](Cc1c[nH]cn1)C(=O)N[C@@H](CC(C)C)C(=O)N[C@H](C(=O)N[C@@H](CC(N)=O)C(=O)N[C@@H](CCCCNC(=O)CC[C@H](NC(=O)CC[C@H](NC(=O)CC[C@H](NC(=O)CC[C@H](NC(=O)CC[C@H](NC(=O)CC[C@H](NC(=O)CCCCCCCCCCCCCCCCCCC(=O)O)C(=O)O)C(=O)O)C(=O)O)C(=O)O)C(=O)O)C(=O)O)C(=O)NC(C)(C)C(=O)N[C@H](C(=O)N[C@@H](CCCNC(=N)N)C(=O)N[C@@H](CCC(N)=O)C(=O)N[C@@H](CCCNC(=N)N)C(=O)N[C@@H](Cc1ccc(O)cc1)C(N)=O)[C@@H](C)O)[C@@H](C)CC)C(C)C [Compound 29, Y-Aib-E-G-T-F-T-S-D-Y-S-I-A-L-E-K-Q-A-Q-Aib-A-F-V-R-H-L-I-N-K(1,3)-Aib-T-R-Q-R-Y-NH2.C20DA-gGlu-gGlu-gGlu-gGlu-gGlu-gGlu(1,2)] | 
0.6 nM |  | 4300 µg/mL | 131 nM | CC[C@H](C)[C@H](NC(=O)[C@H](CC(C)C)NC(=O)[C@H](Cc1c[nH]cn1)NC(=O)[C@H](CCCNC(=N)N)NC(=O)[C@@H](NC(=O)[C@H](Cc1ccccc1)NC(=O)[C@H](C)NC(=O)C(C)(C)NC(=O)[C@H](CCC(N)=O)NC(=O)[C@H](C)NC(=O)[C@H](CCC(N)=O)NC(=O)[C@H](CCCCN)NC(=O)[C@H](CCC(=O)O)NC(=O)[C@H](CC(C)C)NC(=O)C(C)(C)NC(=O)[C@@H](NC(=O)[C@H](CO)NC(=O)[C@H](Cc1ccc(O)cc1)NC(=O)[C@H](CC(=O)O)NC(=O)[C@H](CO)NC(=O)[C@@H](NC(=O)[C@H](Cc1ccccc1)NC(=O)[C@@H](NC(=O)CNC(=O)[C@H](CCC(=O)O)NC(=O)C(C)(C)NC(=O)[C@@H](N)Cc1ccc(O)cc1)[C@@H](C)O)[C@@H](C)O)[C@@H](C)CC)C(C)C)C(=O)N[C@@H](CC(N)=O)C(=O)N[C@@H](CCCCNC(=O)CC[C@H](NC(=O)CC[C@H](NC(=O)CC[C@H](NC(=O)CC[C@H](NC(=O)CC[C@H](NC(=O)CC[C@H](NC(=O)[C@H]1CC[C@H](CNC(=O)CCCCCCCCCCCCCCCCC(=O)O)CC1)C(=O)O)C(=O)O)C(=O)O)C(=O)O)C(=O)O)C(=O)O)C(=O)NC(C)(C)C(=O)N[C@H](C(=O)N[C@@H](CCCNC(=N)N)C(=O)N[C@@H](CCC(N)=O)C(=O)N[C@@H](CCCNC(=N)N)C(=O)N[C@@H](Cc1ccc(O)cc1)C(N)=O)[C@@H](C)O [Compound 31, Y-Aib-E-G-T-F-T-S-D-Y-S-I-Aib-L-E-K-Q-A-Q-Aib-A-F-V-R-H-L-I-N-K(1,3)-Aib-T-R-Q-R-Y-NH2.C18DA-TRX-gGlu-gGlu-gGlu-gGlu-gGlu-gGlu(1,2)] | 
0.4 nM | 9.9 nM |  |  | CC[C@H](C)[C@H](NC(=O)[C@H](CC(C)C)NC(=O)[C@H](Cc1c[nH]cn1)NC(=O)[C@H](CCCNC(=N)N)NC(=O)[C@@H](NC(=O)[C@H](Cc1ccccc1)NC(=O)[C@H](C)NC(=O)C(C)(C)NC(=O)[C@H](CCC(N)=O)NC(=O)[C@H](C)NC(=O)[C@H](CCC(N)=O)NC(=O)[C@H](CCCNC(=N)N)NC(=O)[C@H](CCC(=O)O)NC(=O)[C@H](CC(C)C)NC(=O)C(C)(C)NC(=O)[C@@H](NC(=O)[C@H](CO)NC(=O)[C@H](Cc1ccc(O)cc1)NC(=O)[C@H](CC(=O)O)NC(=O)[C@H](CO)NC(=O)[C@@H](NC(=O)[C@H](Cc1ccccc1)NC(=O)[C@@H](NC(=O)CNC(=O)[C@H](CCC(=O)O)NC(=O)C(C)(C)NC(=O)[C@@H](N)Cc1ccc(O)cc1)[C@@H](C)O)[C@@H](C)O)[C@@H](C)CC)C(C)C)C(=O)N[C@@H](CC(N)=O)C(=O)N[C@@H](CCCCNC(=O)[C@@H](N)CCCCNC(=O)CC[C@H](NC(=O)CC[C@H](NC(=O)CC[C@H](NC(=O)CC[C@H](NC(=O)CC[C@H](NC(=O)CC[C@H](NC(=O)CCCCCCCCCCCCCCCCCCC(=O)O)C(=O)O)C(=O)O)C(=O)O)C(=O)O)C(=O)O)C(=O)O)C(=O)NC(C)(C)C(=O)N[C@H](C(=O)N[C@@H](CCCNC(=N)N)C(=O)N[C@@H](CCC(N)=O)C(=O)N[C@@H](CCCNC(=N)N)C(=O)N[C@@H](Cc1ccc(O)cc1)C(N)=O)[C@@H](C)O [Compound 171, Y-Aib-E-G-T-F-T-S-D-Y-S-I-Aib-L-E-R-Q-A-Q-Aib-A-F-V-R-H-L-I-N-K(1,3)-Aib-T-R-Q-R-Y-NH2.C20DA-gGlu-gGlu-gGlu-gGlu-gGlu-gGlu-eLys(1,2)] | 

SMILES | EC50 (hGIPR) | EC50 (hNPY2R; [2]) | solubility at 2 h [1] | EC50 (hNPY2R; 100% human plasma, read-out: hNPY2R 100% hP) | EC50 (hNPY2R; hNPY2R 100% hP (nM), 100% human plasma)
CC[C@H](C)[C@H](NC(=O)[C@H](CO)NC(=O)[C@H](Cc1ccc(O)cc1)NC(=O)[C@H](CC(=O)O)NC(=O)[C@H](CO)NC(=O)[C@@H](NC(=O)[C@H](Cc1ccccc1)NC(=O)[C@@H](NC(=O)CNC(=O)[C@H](CCC(=O)O)NC(=O)C(C)(C)NC(=O)[C@@H](N)Cc1ccc(O)cc1)[C@@H](C)O)[C@@H](C)O)C(=O)NC(C)(C)C(=O)N[C@@H](CC(C)C)C(=O)N[C@@H](CCC(=O)O)C(=O)N[C@@H](CCCCN)C(=O)N[C@@H](CCC(N)=O)C(=O)N[C@@H](C)C(=O)N[C@@H](CCC(N)=O)C(=O)NC(C)(C)C(=O)N[C@@H](C)C(=O)N[C@@H](Cc1ccccc1)C(=O)N[C@H](C(=O)N[C@@H](CCCNC(=N)N)C(=O)N[C@@H](Cc1c[nH]cn1)C(=O)N[C@@H](CC(C)C)C(=O)N[C@@H](Cc1ccc(O)cc1)C(=O)N[C@@H](CC(N)=O)C(=O)N[C@@H](CCCCNC(=O)[C@@H](N)CCCCNC(=O)CC[C@H](NC(=O)CC[C@H](NC(=O)CC[C@H](NC(=O)CC[C@H](NC(=O)CC[C@H](NC(=O)CC[C@H](NC(=O)CCCCCCCCCCCCCCCCC(=O)O)C(=O)O)C(=O)O)C(=O)O)C(=O)O)C(=O)O)C(=O)O)C(=O)NC(C)(C)C(=O)N[C@H](C(=O)N[C@@H](CCCNC(=N)N)C(=O)N[C@@H](CCC(N)=O)C(=O)N[C@@H](CCCNC(=N)N)C(=O)N[C@@H](Cc1ccc(O)cc1)C(N)=O)[C@@H](C)O)C(C)C [Compound 58, Y-Aib-E-G-T-F-T-S-D-Y-S-I-Aib-L-E-K-Q-A-Q-Aib-A-F-V-R-H-L-Y-N-K(1,3)-Aib-T-R-Q-R-Y-NH2.C18DA-gGlu-gGlu-gGlu-gGlu-gGlu-gGlu-eLys(1,2)] |  |  | 3300 µg/mL |  | 40 nM
